From the supplement of paper PMC10307832

Columns and labels:
Experiment in all cases: relative viability (nuclei count vs DMSO), 5 days (fraction); higher = more cells survive
[1] = compound: O=C(c1cc(Cc2n[nH]c(=O)c3ccccc23)ccc1F)N1CCN(C(=O)C2CC2)CC1 [Olaparib] + CCNC(=O)c1noc(-c2cc(C(C)C)c(O)cc2O)c1-c1ccc(CN2CCOCC2)cc1 [Luminespib] (partner 0.01 µM)
Summary of the method: (§1)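 One day after seeding in 1536-well plates, lung cancer cell lines were dosed by pin tool. Dosing was either single-drug or a fixed anchor-drug dose plus five library-drug doses (not always all listed) in √10 steps. After 5 days, nuclei were stained in one fix-and-stain step and counted on 4× images, and relative viability is the nuclei count of treated wells over that of vehicle wells, given as the median of duplicate plates.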

[2] = compound: C[C@@H](Oc1cc(-c2cnn(C3CCNCC3)c2)cnc1N)c1c(Cl)ccc(F)c1Cl [Crizotinib] + NC(=O)Nc1cc(-c2cccc(F)c2)sc1C(=O)N[C@H]1CCCNC1 [AZD7762] (partner 0.2 µM)
Summary of the method: as §1

[3] = compound: C[C@@H](Oc1cc(-c2cnn(C3CCNCC3)c2)cnc1N)c1c(Cl)ccc(F)c1Cl [Crizotinib] + Cc1nc(NC(=O)N2CCC[C@H]2C(N)=O)sc1-c1ccnc(C(C)(C)C(F)(F)F)c1 [Alpelisib] (partner 2 µM)
Summary of the method: as §1

[4] = compound: O=C(c1cc(Cc2n[nH]c(=O)c3ccccc23)ccc1F)N1CCN(C(=O)C2CC2)CC1 [Olaparib] + CC(=O)Nc1cccc(-n2c(=O)n(C3CC3)c(=O)c3c(Nc4ccc(I)cc4F)n(C)c(=O)c(C)c32)c1 [Trametinib] (partner 0.02 µM)
Summary of the method: as §1

Cell Line	relative viability ([1]; first compound 0.08 µM)	relative viability ([1]; first compound 0.253 µM)	relative viability ([1]; first compound 2.53 µM)	relative viability ([1]; first compound 8 µM)	relative viability ([2]; first compound 0.01 µM)	relative viability ([2]; first compound 0.03162 µM)	relative viability ([2]; first compound 0.1 µM)	relative viability ([2]; first compound 0.3162 µM)	relative viability ([2]; first compound 1 µM)	relative viability ([3]; first compound 0.01 µM)	relative viability ([3]; first compound 0.03162 µM)	relative viability ([3]; first compound 0.1 µM)	relative viability ([3]; first compound 0.3162 µM)	relative viability ([3]; first compound 1 µM)	relative viability ([4]; first compound 0.08 µM)	relative viability ([4]; first compound 0.253 µM)	relative viability ([4]; first compound 2.53 µM)	relative viability ([4]; first compound 8 µM)
NCI-H1975	0.169	0.174	0.258	0.234	0.641	0.784	0.771	0.684	0.636	0.682	0.683	0.673	0.689	0.68	0.329	0.349	0.395	0.307
NCI-H1993	0.87	0.842	0.78	1.04	0.702	0.75		0.379	0.527	0.669	0.625	0.652	0.715	0.737	0.559	0.57	0.517	0.384
NCI-H2085	0.499	0.381	0.427	0.437	0.961	1.01	0.986	0.737	1.02	0.954	1.02		1.05	0.954	0.619	0.528	0.504	0.523
NCI-H2087	0.162	0.159	0.199	0.154	1.39	1.49	1.24	1.24	1.48	1.02				1.21	0.219	0.208	0.215	0.188
NCI-H2126	1.13	0.797	0.811	0.724	0.928	1.09	1.02	0.903	1.04	0.719	0.782	0.714	0.708	0.79	0.527	0.55	0.584	0.596
NCI-H2170	0.735	0.651	0.594	0.5	0.761	0.894	0.835	0.852	0.858	0.804	0.779	0.74	0.709	0.904	0.937	0.925	0.883	0.8
NCI-H2347	0.43	0.615	0.398	0.259	0.773	0.663	0.772	0.582	0.884	1.04	1.03	1.03	0.978	0.996	0.282	0.274	0.274	0.248
NCI-H2405	0.646	0.651	0.685	0.782	0.632	0.695	0.684	0.763	0.755	0.74	0.762	0.69	0.818	0.857	0.767	0.597	0.677	0.641
NCI-H3122	0.0823	0.107	0.101	0.0643	1.01	1.05	0.93	0.962	0.921	0.729	0.667	0.857	0.867	0.796	0.219	0.238	0.241	0.203
